Test results published in ChEMBL document CHEMBL1201862, “PubChem BioAssay data set” (2004).
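Step 1: Grow cells in 96-well plates. Step 2: Expose to compound for 48 hours at 5 concentrations. Step 3: Interpolate endpoints linearly; if unreached, use highest concentration. GI50 is the concentration that inhibits growth by half.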 Calls of active or inactive are those of the source. Cut-off read from the data, not from the text of the source: active = GI50 up to about 1.1 µM and inactive = higher.

Key:
Test in all cases: growth of human tumour cells (NCI), 48 h
SNB-78 = test system: SNB-78
HOP-92 = test system: HOP-92
SR = test system: SR
COLO 205 = test system: COLO 205
SK-OV-3 = test system: SK-OV-3
RPMI-8226 = test system: RPMI-8226
NCI-H522 = test system: NCI-H522
UACC-62 = test system: UACC-62
SN12C = test system: SN12C
LOX IMVI = test system: LOX IMVI
HCT-116 = test system: HCT-116
MDA-N = test system: MDA-N
KM12 = test system: KM12
CAKI-1 = test system: CAKI-1
NCI-H23 = test system: NCI-H23
UO-31 = test system: UO-31
SK-MEL-2 = test system: SK-MEL-2
Hs-578T = test system: Hs-578T
HT-29 = test system: HT-29
OVCAR-4 = test system: OVCAR-4

SMILES	GI50 (SNB-78)	GI50 (HOP-92)	GI50 (SR)	GI50 (COLO 205)	GI50 (SK-OV-3)	GI50 (RPMI-8226)	GI50 (NCI-H522)	GI50 (UACC-62)	GI50 (SN12C)	GI50 (LOX IMVI)	GI50 (HCT-116)	GI50 (MDA-N)	GI50 (KM12)	GI50 (CAKI-1)	GI50 (NCI-H23)	GI50 (UO-31)	GI50 (SK-MEL-2)	GI50 (Hs-578T)	GI50 (HT-29)	GI50 (OVCAR-4)
C=C(CN(C)C)C(=O)c1ccc(OC2OC(COC(C)=O)C(OC(C)=O)C(OC(C)=O)C2OC(C)=O)cc1 (stereo not drawn)	8.93 µM (inactive)	0.581 µM (active)	0.975 µM (active)	0.753 µM (active)	19.4 µM (inactive)	2.88 µM (inactive)	0.447 µM (active)	4.7 µM (inactive)	9.98 µM (inactive)	3.35 µM (inactive)	2.25 µM (inactive)	3.03 µM (inactive)	17.6 µM (inactive)	1.59 µM (inactive)	8.89 µM (inactive)	2.34 µM (inactive)	10.3 µM (inactive)	19.7 µM (inactive)	2.75 µM (inactive)	3.75 µM (inactive)
C[N+](C)=c1nc(N2CCOCC2)ss1	> 100 µM (inactive)	> 100 µM (inactive)	> 100 µM (inactive)	–	> 100 µM (inactive)	–	13.7 µM (inactive)	8.53 µM (inactive)	> 100 µM (inactive)	88.7 µM (inactive)	> 100 µM (inactive)	–	> 100 µM (inactive)	> 100 µM (inactive)	> 100 µM (inactive)	> 100 µM (inactive)	> 100 µM (inactive)	–	22.8 µM (inactive)	–
c1ccc(C2SCc3nc4ccccc4n32)cc1 (stereo not drawn)	95.5 µM (inactive)	22.2 µM (inactive)	25.8 µM (inactive)	37.8 µM (inactive)	91.8 µM (inactive)	20.1 µM (inactive)	18.9 µM (inactive)	37.2 µM (inactive)	46.1 µM (inactive)	39.9 µM (inactive)	19.7 µM (inactive)	–	32.4 µM (inactive)	42.7 µM (inactive)	31.5 µM (inactive)	24.6 µM (inactive)	29.6 µM (inactive)	–	46 µM (inactive)	66.7 µM (inactive)
COc1ccc(/C=C2\CCC(CN3CCOCC3)C2=O)cc1 (stereo not drawn)	4.86 µM (inactive)	2.52 µM (inactive)	1.46 µM (inactive)	2.17 µM (inactive)	16.4 µM (inactive)	0.552 µM (active)	0.776 µM (active)	11.8 µM (inactive)	3.83 µM (inactive)	4.65 µM (inactive)	1.8 µM (inactive)	2.79 µM (inactive)	5.65 µM (inactive)	1.99 µM (inactive)	5.94 µM (inactive)	8.45 µM (inactive)	3.78 µM (inactive)	3.04 µM (inactive)	2.44 µM (inactive)	5.96 µM (inactive)
O=C1C=C(N2CCCC2)C=C(N2CCCC2)C1	> 100 µM (inactive)	> 100 µM (inactive)	> 100 µM (inactive)	> 100 µM (inactive)	> 100 µM (inactive)	> 100 µM (inactive)	> 100 µM (inactive)	> 100 µM (inactive)	–	> 100 µM (inactive)	> 100 µM (inactive)	–	> 100 µM (inactive)	> 100 µM (inactive)	> 100 µM (inactive)	> 100 µM (inactive)	> 100 µM (inactive)	–	> 100 µM (inactive)	–
C=C1C(=O)OC2/C=C(CO)/C=C\C3OC3(C)CC(OC(=O)/C(C)=C/COC(C)=O)C12 (stereo not drawn)	4.08 µM (inactive)	2.62 µM (inactive)	0.56 µM (active)	1.6 µM (inactive)	17.8 µM (inactive)	0.716 µM (active)	0.692 µM (active)	2.2 µM (inactive)	2.21 µM (inactive)	1.34 µM (inactive)	1.5 µM (inactive)	1.75 µM (inactive)	5.28 µM (inactive)	2.76 µM (inactive)	3.08 µM (inactive)	6.11 µM (inactive)	3.75 µM (inactive)	3.08 µM (inactive)	2.52 µM (inactive)	3.99 µM (inactive)
CCOC(=O)C1=C(O)C(=O)c2ccoc2C1=O	> 100 µM (inactive)	> 100 µM (inactive)	> 100 µM (inactive)	> 100 µM (inactive)	> 100 µM (inactive)	> 100 µM (inactive)	> 100 µM (inactive)	> 100 µM (inactive)	> 100 µM (inactive)	> 100 µM (inactive)	> 100 µM (inactive)	–	> 100 µM (inactive)	> 100 µM (inactive)	> 100 µM (inactive)	> 100 µM (inactive)	> 100 µM (inactive)	–	> 100 µM (inactive)	> 100 µM (inactive)
C[N+](C)(C)CC(=O)N/N=c1\cc(C(=O)Nc2ccc(N=O)cc2C#N)oc2cc(O)ccc12	> 100 µM (inactive)	> 100 µM (inactive)	> 100 µM (inactive)	> 100 µM (inactive)	> 100 µM (inactive)	–	> 100 µM (inactive)	> 100 µM (inactive)	> 100 µM (inactive)	> 100 µM (inactive)	> 100 µM (inactive)	–	> 100 µM (inactive)	> 100 µM (inactive)	> 100 µM (inactive)	72.3 µM (inactive)	> 100 µM (inactive)	–	> 100 µM (inactive)	> 100 µM (inactive)
O=c1c2ccccc2n2cnc3ccc(NCCNCCO)c1c32	2.06 µM (inactive)	4.24 µM (inactive)	0.467 µM (active)	0.834 µM (active)	2.99 µM (inactive)	2.2 µM (inactive)	1.49 µM (inactive)	2.31 µM (inactive)	1.51 µM (inactive)	1.11 µM (active)	0.798 µM (active)	1.9 µM (inactive)	1.17 µM (inactive)	2.43 µM (inactive)	2.16 µM (inactive)	2.87 µM (inactive)	3.03 µM (inactive)	2.37 µM (inactive)	1.06 µM (active)	1.44 µM (inactive)
CC(=O)Oc1c(-c2ccccc2)[nH]c2cc([N+](=O)[O-])c(/C(Cl)=C/c3ccccc3)cc12	3.85 µM (inactive)	3.65 µM (inactive)	3.57 µM (inactive)	4 µM (inactive)	26.9 µM (inactive)	3.08 µM (inactive)	4.86 µM (inactive)	4.24 µM (inactive)	4.86 µM (inactive)	–	3.91 µM (inactive)	–	3.97 µM (inactive)	10.7 µM (inactive)	2.47 µM (inactive)	8 µM (inactive)	9.57 µM (inactive)	–	3.2 µM (inactive)	5.42 µM (inactive)
O=C(CC/C(CC(=O)c1ccc(Cl)cc1)=N/O)Nc1ccc(Cl)c(Cl)c1	> 100 µM (inactive)	82.4 µM (inactive)	89.5 µM (inactive)	> 100 µM (inactive)	> 100 µM (inactive)	76.9 µM (inactive)	82.6 µM (inactive)	18.3 µM (inactive)	> 100 µM (inactive)	–	> 100 µM (inactive)	–	> 100 µM (inactive)	86.1 µM (inactive)	45.5 µM (inactive)	98.4 µM (inactive)	38.3 µM (inactive)	–	> 100 µM (inactive)	43.4 µM (inactive)
